Source: patent US9982005B2, “Macrolides and methods of their preparation and use” (President and Fellows of Harvard College, priority 2013, dated 2018)
≈ marks a conversion by molar mass, not a printed value. Where two headings read alike, the source gives them in different places.

How the values were obtained:
Format in all cases: cell-based
E. coli strains = test: MIC against E. coli strains (Table M7); conditions: for MIC: Escherichia coli, ATCC25922, E. coli ATCC 25922
Excerpt: (§1) We have collected MIC data for a total of 50 novel macrolides that this platform has produced against over 21 unique strains of B. subtilis, E. coli, S. aureus, S. pneumoniae, and H. influenzae, including several multidrug-resistant strains, with a special focus on macrolide resistant mechanisms (vide supra). Azithromycin was included as a control macrolide. CLSI standard procedures for broth dilution MIC determination were used. […] These genotypes can be constitutive or inducible. The finding that C4-epi (unnatural) isomers of the “azaketolide” macrolide class have enhanced activities relative to C4 natural isomers is very exciting.

H. influenzae strains = test: MIC against H. influenzae strains (Table M8); conditions: for MIC: Haemophilus influenzae
Excerpt: as §1

S. aureus strains = test: MIC against S. aureus strains (Table M7); conditions: for MIC: Staphylococcus aureus
Excerpt: as §1

E. faecalis strains = test: MIC against E. faecalis strains (Table M8); conditions: for MIC: Enterococcus faecalis, E. faecalis 29212
K. pneumoniae strains = test: MIC against K. pneumoniae strains (Table M8); conditions: for MIC: Klebsiella pneumoniae, K. pneumoniae 10031
S. pneumoniae strains = test: MIC against S. pneumoniae strains (Tables M7, M8); conditions: for MIC: Streptococcus pneumoniae
Excerpt: CLSI standard procedures for broth dilution MIC determination were used. […] These genotypes can be constitutive or inducible.

A. baumannii strains = test: MIC against A. baumannii strains (Table M8); conditions: for MIC: Acinetobacter baumannii, BAA747, A. baumannii BAA747-1
[1] = H. influenzae 49247, read-out: MIC H. influenzae (49247)
[2] = H. influenzae 49766, read-out: MIC H. influenzae (49766)
[3] = ATCC29213, S. aureus ATCC 29213, read-out: MIC S. aureus (ATCC 29213)
[4] = S. aureus 183, read-out: MIC S. aureus (183)
[5] = S. aureus 506, read-out: MIC S. aureus (506)
[6] = S. aureus 1708, read-out: MIC S. aureus (1708)
[7] = USA300, S. aureus USA300, read-out: MIC S. aureus (USA300)
[8] = S. pneumoniae 160, read-out: MIC S. pneumonae (160)
[9] = S. pneumoniae 1509, read-out: MIC S. pneumoniae (1509)
[10] = S. pneumoniae 1533, read-out: MIC S. pneumoniae (1533)
[11] = S. pneumoniae 1537, read-out: MIC S. pneumoniae (1537)
[12] = S. pneumoniae 49619, read-out: MIC S. pneumoniae (49619)

MIC (E. coli strains)	MIC (H. influenzae strains; [1])	MIC (H. influenzae strains; [2])	MIC (S. aureus strains; [3])	MIC (S. aureus strains; [4])	MIC (S. aureus strains; [5])	MIC (S. aureus strains; [6])	MIC (S. aureus strains; [7])	MIC (E. faecalis strains)	MIC (K. pneumoniae strains)	MIC (S. pneumoniae strains; [8])	MIC (S. pneumoniae strains; [9])	MIC (S. pneumoniae strains; [10])	MIC (S. pneumoniae strains; [11])	MIC (S. pneumoniae strains; [12])	MIC (A. baumannii strains)	MIC E. coli (ATCC 25922) (E. coli strains)	MIC H. influenzae (49247) (H. influenzae strains; H. influenzae 49247)	MIC H. influenzae (49766) (H. influenzae strains; H. influenzae 49766)	MIC S. aureus (183) (S. aureus strains; S. aureus 183)	SMILES	further results
32 µg/mL (≈ 37.5 µM)	2 µg/mL (≈ 2.34 µM)	8 µg/mL (≈ 9.37 µM)	1 µg/mL (≈ 1.17 µM)	> 32 µg/mL	> 32 µg/mL	1 µg/mL (≈ 1.17 µM)	1 µg/mL (≈ 1.17 µM)	0.25 µg/mL (≈ 0.293 µM)	8 µg/mL (≈ 9.37 µM)	0.125 µg/mL (≈ 0.146 µM)	1 µg/mL (≈ 1.17 µM)	> 32 µg/mL	> 32 µg/mL	0.125 µg/mL (≈ 0.146 µM)	32 µg/mL (≈ 37.5 µM)					C=CC[C@H]1NC[C@H](C)C[C@@](C)(OC)[C@H](O[C@@H]2OC(C)CC(N(C)C)C2O)[C@@H](C)C(=O)[C@@H](C)C(=O)O[C@H](CC)[C@@]2(C)OC(=O)N(CCCCn3cc(-c4cccc(N)c4)nn3)[C@H]12 (stereo partly drawn) [FSM-11044]	
> 32 µg/mL	8 µg/mL (≈ 9.04 µM)	32 µg/mL (≈ 36.2 µM)	8 µg/mL (≈ 9.04 µM)	> 32 µg/mL	> 32 µg/mL	4 µg/mL (≈ 4.52 µM)	32 µg/mL (≈ 36.2 µM)	2 µg/mL (≈ 2.26 µM)	16 µg/mL (≈ 18.1 µM)	0.5 µg/mL (≈ 0.565 µM)	0.5 µg/mL (≈ 0.565 µM)	> 32 µg/mL	> 32 µg/mL	0.125 µg/mL (≈ 0.141 µM)	> 32 µg/mL					CC[C@H]1OC(=O)[C@H](C)C(=O)[C@H](C)[C@@H](O[C@@H]2OC(C)CC(N(C)C)C2O)[C@](C)(OC)C[C@@H](C)CN[C@H](CCN(C)C)[C@H]2N(CCCCn3cc(-c4cccc(N)c4)nn3)C(=O)O[C@]12C (stereo partly drawn) [FSM-11052]	
32 µg/mL (≈ 35.1 µM)	4 µg/mL (≈ 4.39 µM)	16 µg/mL (≈ 17.6 µM)	32 µg/mL (≈ 35.1 µM)	> 32 µg/mL	> 32 µg/mL	16 µg/mL (≈ 17.6 µM)	32 µg/mL (≈ 35.1 µM)	8 µg/mL (≈ 8.78 µM)	8 µg/mL (≈ 8.78 µM)	2 µg/mL (≈ 2.19 µM)	32 µg/mL (≈ 35.1 µM)	> 32 µg/mL	> 32 µg/mL	1 µg/mL (≈ 1.1 µM)	> 32 µg/mL					CC[C@H]1OC(=O)[C@H](Cc2cncs2)C(=O)[C@H](C)[C@@H](O[C@@H]2OC(C)CC(N(C)C)C2O)[C@](C)(OC)C[C@@H](C)CN[C@H](C)[C@H]2N(CCCCn3cc(-c4cccc(N)c4)nn3)C(=O)O[C@]12C (stereo partly drawn) [FSM-56216]	
																>32 µg/mL	>32 µg/mL	>32 µg/mL	>32 µg/mL	CC[C@H]1OC(=O)[C@H](C)C(=O)[C@H](C)[C@@H](O[C@@H]2OC(C)CC(N(C)C)C2O)[C@](C)(OC)CC(C)N[C@H](C)[C@H]2N(CCCCn3cc(-c4cccc(N)c4)nn3)C(=O)O[C@]12C (stereo partly drawn) [FSM-30690]	MIC S. aureus (506) (S. aureus strains; S. aureus 506): >32 µg/mL; MIC S. aureus (1708) (S. aureus strains; S. aureus 1708): >32 µg/mL; MIC S. aureus (ATCC 29213) (S. aureus strains): >32 µg/mL; MIC S. aureus (USA300) (S. aureus strains): >32 µg/mL; MIC E. faecalis (29212) (E. faecalis strains): >32 µg/mL; MIC K. pneumoniae (10031) (K. pneumoniae strains): >32 µg/mL; MIC S. pneumonae (160) (S. pneumoniae strains; S. pneumoniae 160): >32 µg/mL; MIC S. pneumoniae (1509) (S. pneumoniae strains; S. pneumoniae 1509): >32 µg/mL; MIC S. pneumoniae (1533) (S. pneumoniae strains; S. pneumoniae 1533): >32 µg/mL; MIC S. pneumoniae (1537) (S. pneumoniae strains; S. pneumoniae 1537): >32 µg/mL; MIC S. pneumoniae (49619) (S. pneumoniae strains; S. pneumoniae 49619): >32 µg/mL; MIC A. baumannii (BAA747-1) (A. baumannii strains): >32 µg/mL
																>32 µg/mL	8 µg/mL	>32 µg/mL	>32 µg/mL	CCC1OC(=O)C(Cc2cn[nH]c2)C(=O)C(C)C(OC2OC(C)CC(N(C)C)C2O)C(C)(OCC=Cc2cnc3ccccc3c2)CC(C)CNC(C)C2NC(=O)OC12C (mixture of isomers) [FSM-21264]	MIC S. aureus (506) (S. aureus strains; S. aureus 506): >32 µg/mL; MIC S. aureus (1708) (S. aureus strains; S. aureus 1708): >32 µg/mL; MIC S. aureus (ATCC 29213) (S. aureus strains): >32 µg/mL; MIC S. aureus (USA300) (S. aureus strains): >32 µg/mL; MIC E. faecalis (29212) (E. faecalis strains): >32 µg/mL; MIC K. pneumoniae (10031) (K. pneumoniae strains): >32 µg/mL; MIC S. pneumonae (160) (S. pneumoniae strains; S. pneumoniae 160): 4 µg/mL; MIC S. pneumoniae (1509) (S. pneumoniae strains; S. pneumoniae 1509): >32 µg/mL; MIC S. pneumoniae (1533) (S. pneumoniae strains; S. pneumoniae 1533): >32 µg/mL; MIC S. pneumoniae (1537) (S. pneumoniae strains; S. pneumoniae 1537): >32 µg/mL; MIC S. pneumoniae (49619) (S. pneumoniae strains; S. pneumoniae 49619): 2 µg/mL; MIC A. baumannii (BAA747-1) (A. baumannii strains): >32 µg/mL
																8 µg/mL (≈ 9.37 µM)	2 µg/mL (≈ 2.34 µM)	8 µg/mL (≈ 9.37 µM)	>32 µg/mL	C=CC[C@@]1(OC)C[C@@H](C)CN[C@H](C)[C@H]2N(CCCCn3cc(-c4cccc(N)c4)nn3)C(=O)O[C@]2(C)[C@@H](CC)OC(=O)[C@H](C)C(=O)[C@@H](C)[C@H]1O[C@@H]1OC(C)CC(N(C)C)C1O (stereo in doubt) [FSM-21368]	MIC S. aureus (506) (S. aureus strains; S. aureus 506): >32 µg/mL; MIC S. aureus (1708) (S. aureus strains; S. aureus 1708): 16 µg/mL (≈ 18.7 µM); MIC S. aureus (ATCC 29213) (S. aureus strains): 8 µg/mL (≈ 9.37 µM); MIC S. aureus (USA300) (S. aureus strains): 8 µg/mL (≈ 9.37 µM); MIC E. faecalis (29212) (E. faecalis strains): 2 µg/mL (≈ 2.34 µM); MIC K. pneumoniae (10031) (K. pneumoniae strains): 4 µg/mL (≈ 4.68 µM); MIC S. pneumonae (160) (S. pneumoniae strains; S. pneumoniae 160): 0.25 µg/mL (≈ 0.293 µM); MIC S. pneumoniae (1509) (S. pneumoniae strains; S. pneumoniae 1509): 8 µg/mL (≈ 9.37 µM); MIC S. pneumoniae (1533) (S. pneumoniae strains; S. pneumoniae 1533): >32 µg/mL; MIC S. pneumoniae (1537) (S. pneumoniae strains; S. pneumoniae 1537): >32 µg/mL; MIC S. pneumoniae (49619) (S. pneumoniae strains; S. pneumoniae 49619): 1 µg/mL (≈ 1.17 µM); MIC A. baumannii (BAA747-1) (A. baumannii strains): 16 µg/mL (≈ 18.7 µM)
